As usually defined, the EC50 is the concentration that produces a half-maximal response. Higher therefore signals a need for much substance.

In this assay the test system is Aβ42. Nature of the assay: In vitro cell screening assay in H4 cells expressing human APP751: Aβ42 by sandwich ELISA. Particulars: compounds 0.003-10 μM, incubated overnight (16-18 h), sandwich ELISA of supernatant. Format: cell-based. Summed up: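 H4 neuroglioma cells stably expressing wild-type human APP751, switched to Pro293 medium and treated with compounds (0.003-10 μM, 0.33% DMSO) for 16-18 h at 37 °C. Supernatant Aβ42 quantified by sandwich ELISA (C-terminal capture, 4G8-HRP detection, A450); EC50 by sigmoidal fit normalized to DMSO and DAPT controls.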
On the technique in general: An ELISA detects its analyte on a solid surface through an enzyme-linked reagent.
Take `COc1nc(C2=NOCC(c3nn(C)c4ccc(C(F)(F)F)cc34)N2)ccc1-n1cnc(C)c1` (single isomer, unassigned; (-)) [Example 241A, (−)-3-(6-methoxy-5-(4-methyl-1H-imidazol-1-yl)pyridin-2-yl)-5-(1-methyl-5-(trifluoromethyl)-1H-indazol-3-yl)-5,6-dihydro-4H-1,2,4-oxadiazine]: the response was half-maximal at 386 nM (EC50).

In turn, `COc1nc(C2=NOCC(c3cccc(OC(F)(F)F)c3)N2)ccc1-n1cnc(C)c1` (single isomer, unassigned; (-)) [Example 242A, (−)-3-(6-methoxy-5-(4-methyl-1H-imidazol-1-yl)pyridin-2-yl)-5-(3-(trifluoromethoxy)phenyl)-5,6-dihydro-4H-1,2,4-oxadiazine] showed an EC50 of 709 nM.

With `COc1nc(C2=NOCC(c3ccc(C4CC4)c(Cl)c3)N2)ccc1-n1cnc(C)c1` (single isomer, unassigned; (-)) [Example 243A, (−)-5-(3-chloro-4-cyclopropylphenyl)-3-(6-methoxy-5-(4-methyl-1H-imidazol-1-yl)pyridin-2-yl)-5,6-dihydro-4H-1,2,4-oxadiazine], the EC50 is 250 nM. Against the preceding compound, the EC50 is about 2.8-fold lower.

On to `COc1nc(C2=NOCC(c3cccc(Cl)c3)N2)ccc1-n1cnc(C)c1` (single isomer, unassigned; (-)) [Example 244A, (−)-5-(3-chlorophenyl)-3-(6-methoxy-5-(4-methyl-1H-imidazol-1-yl)pyridin-2-yl)-5,6-dihydro-4H-1,2,4-oxadiazine], for which the response was half-maximal at 668 nM (EC50). Against the preceding compound, the EC50 is about 2.7-fold higher.

On to `COc1nc(C2=NOCC(c3cn(C)c4ccc(C#N)cc34)N2)ccc1-n1cnc(C)c1` (single isomer, unassigned; (-)) [Example 245A, (−)-3-(3-(6-methoxy-5-(4-methyl-1H-imidazol-1-yl)pyridin-2-yl)-5,6-dihydro-4H-1,2,4-oxadiazin-5-yl)-1-methyl-1H-indole-5-carbonitrile], for which the EC50 turned out to be 554 nM.

`COc1nc(C2=NOCC(C3Cc4ccccc4C3)N2)ccc1-n1cnc(C)c1` (single isomer, unassigned; (-)) [Example 246A, (−)-5-(2,3-dihydro-1H-inden-2-yl)-3-(6-methoxy-5-(4-methyl-1H-imidazol-1-yl)pyridin-2-yl)-5,6-dihydro-4H-1,2,4-oxadiazine] showed an EC50 of 576 nM.

`COc1nc(C2=NOCC(c3cn(C)c4cccc(C#N)c34)N2)ccc1-n1cnc(C)c1` (single isomer, unassigned; (-)) [Example 247B, (−)-3-(3-(6-methoxy-5-(4-methyl-1H-imidazol-1-yl)pyridin-2-yl)-5,6-dihydro-4H-1,2,4-oxadiazin-5-yl)-1-methyl-1H-indole-4-carbonitrile] had an EC50 of 79.2 nM.

As to `COc1nc(C2=NOCC(c3ccc4c(c3)CCC4)N2)ccc1-n1cnc(C)c1` (single isomer, unassigned; (-)) [Example 248A, (−)-5-(2,3-dihydro-1H-inden-5-yl)-3-(6-methoxy-5-(4-methyl-1H-imidazol-1-yl)pyridin-2-yl)-5,6-dihydro-4H-1,2,4-oxadiazine], the response was half-maximal at 474 nM (EC50).

`COc1nc(C2=NOCC(c3cn(C)c4cc(C#N)ccc34)N2)ccc1-n1cnc(C)c1` (single isomer, unassigned; (-)) [Example 249A, (−)-3-(3-(6-methoxy-5-(4-methyl-1H-imidazol-1-yl)pyridin-2-yl)-5,6-dihydro-4H-1,2,4-oxadiazin-5-yl)-1-methyl-1H-indole-6-carbonitrile] registered a concentration for a half-maximal effect (EC50) of 429 nM.

For the compound `COc1ccc2c(c1)c(C1CON=C(c3ccc(-n4cnc(C)c4)c(OC)n3)N1)cn2C` (single isomer, unassigned; (-)) [Example 250A, (−)-5-(5-methoxy-1-methyl-1H-indol-3-yl)-3-(6-methoxy-5-(4-methyl-1H-imidazol-1-yl)pyridin-2-yl)-5,6-dihydro-4H-1,2,4-oxadiazine], the EC50 was 202 nM.

For `COc1nc(C2=NOCC(c3cn(C)c4cccc(OC)c34)N2)ccc1-n1cnc(C)c1` (single isomer, unassigned; (-)) [Example 252A, (−)-5-(4-methoxy-1-methyl-1H-indol-3-yl)-3-(6-methoxy-5-(4-methyl-1H-imidazol-1-yl)pyridin-2-yl)-5,6-dihydro-4H-1,2,4-oxadiazine], the response was half-maximal at 158 nM (EC50).

Regarding `COc1nc(C2=NOCC(c3cn(C)c4cc(Cl)cc(OC)c34)N2)ccc1-n1cnc(C)c1` (single isomer, unassigned; (-)) [Example 254A, (−)-5-(6-chloro-4-methoxy-1-methyl-1H-indol-3-yl)-3-(6-methoxy-5-(4-methyl-1H-imidazol-1-yl)pyridin-2-yl)-5,6-dihydro-4H-1,2,4-oxadiazine], the EC50 turned out to be 148 nM. The EC50 values of the last two compounds are within 1.5-fold of each other.

In turn, `COc1cc2c(cc1Cl)c(C1CON=C(c3ccc(-n4cnc(C)c4)c(OC)n3)N1)cn2C` (single isomer, unassigned; (-)) [Example 255A, (−)-5-(5-chloro-6-methoxy-1-methyl-1H-indol-3-yl)-3-(6-methoxy-5-(4-methyl-1H-imidazol-1-yl)pyridin-2-yl)-5,6-dihydro-4H-1,2,4-oxadiazine] returned an EC50 of 70.4 nM.

For `COc1nc(C2=NOCC(c3cn(C)c4cc(S(C)(=O)=O)ccc34)N2)ccc1-n1cnc(C)c1` (single isomer, unassigned; (-)) [Example 256A, (−)-3-(6-methoxy-5-(4-methyl-1H-imidazol-1-yl)pyridin-2-yl)-5-(1-methyl-6-(methylsulfonyl)-1H-indol-3-yl)-5,6-dihydro-4H-1,2,4-oxadiazine], the concentration for a half-maximal effect (EC50) turned out to be 2590 nM.

In turn, `COc1nc(C2=NOCC(c3cn(C)c4cc(F)c(C)cc34)N2)ccc1-n1cnc(C)c1` (single isomer, unassigned; (-)) [Example 257A, (−)-5-(6-fluoro-1,5-dimethyl-1H-indol-3-yl)-3-(6-methoxy-5-(4-methyl-1H-imidazol-1-yl)pyridin-2-yl)-5,6-dihydro-4H-1,2,4-oxadiazine] registered a half-maximal effective concentration (EC50) of 120 nM.

`COc1ccc2c(C3CON=C(c4ccc(-n5cnc(C)c5)c(OC)n4)N3)cn(C)c2c1` (single isomer, unassigned; (-)) [Example 258A, (−)-5-(6-methoxy-1-methyl-1H-indol-3-yl)-3-(6-methoxy-5-(4-methyl-1H-imidazol-1-yl)pyridin-2-yl)-5,6-dihydro-4H-1,2,4-oxadiazine] had an EC50 of 154 nM.

In turn, `COc1nc(C2=NOCC(c3cc4cc(C(F)(F)F)ccc4o3)N2)ccc1-n1cnc(C)c1` (single isomer, unassigned; (-)) [Example 259A, (−)-3-(6-methoxy-5-(4-methyl-1H-imidazol-1-yl)pyridin-2-yl)-5-(5-(trifluoromethyl)benzofuran-2-yl)-5,6-dihydro-4H-1,2,4-oxadiazine] had a 50% effective concentration (EC50) of 2460 nM.

`COc1nc(C2=NOCC(c3cc4ccc(C(F)(F)F)cc4o3)N2)ccc1-n1cnc(C)c1` (single isomer, unassigned; (-)) [Example 260A, (−)-3-(6-methoxy-5-(4-methyl-1H-imidazol-1-yl)pyridin-2-yl)-5-(6-(trifluoromethyl)benzofuran-2-yl)-5,6-dihydro-4H-1,2,4-oxadiazine] gave a concentration giving a half-maximal response (EC50) of 2320 nM.

The compound `COc1cc(Cl)c2c(C3CON=C(c4ccc(-n5cnc(C)c5)c(OC)n4)N3)cn(C)c2c1` (single isomer, unassigned; (-)) [Example 261B, (−)-5-(4-chloro-6-methoxy-1-methyl-1H-indol-3-yl)-3-(6-methoxy-5-(4-methyl-1H-imidazol-1-yl)pyridin-2-yl)-5,6-dihydro-4H-1,2,4-oxadiazine] had a 50% effective concentration (EC50) of 21.2 nM.

Regarding `COc1nc(C2=NOCC(c3ccc(C(F)(F)F)c(Cl)c3)N2)ccc1-n1cnc(C)c1` (single isomer, unassigned; (-)) [Example 262A, (−)-5-(3-chloro-4-(trifluoromethyl)phenyl)-3-(6-methoxy-5-(4-methyl-1H-imidazol-1-yl)pyridin-2-yl)-5,6-dihydro-4H-1,2,4-oxadiazine], the EC50 was > 3000 nM.

As for `COc1nc(C2=NOCC(c3cn(C)c4ncc(Cl)cc34)N2)ccc1-n1cnc(C)c1` (single isomer, unassigned; (-)) [Example 264A, (−)-5-(5-chloro-1-methyl-1H-pyrrolo[2,3-b]pyridin-3-yl)-3-(6-methoxy-5-(4-methyl-1H-imidazol-1-yl)pyridin-2-yl)-5,6-dihydro-4H-1,2,4-oxadiazine], a half-maximal effect (EC50) was put at 321 nM.

Take `COc1nc(C2=NOCC(c3cn(C)c4ncc(C5CC5)cc34)N2)ccc1-n1cnc(C)c1` (single isomer, unassigned; (-)) [Example 266A, (−)-5-(5-cyclopropyl-1-methyl-1H-pyrrolo[2,3-b]pyridin-3-yl)-3-(6-methoxy-5-(4-methyl-1H-imidazol-1-yl)pyridin-2-yl)-5,6-dihydro-4H-1,2,4-oxadiazine]: the response was half-maximal at 450 nM (EC50).

`COc1nc(C2=NOCC(c3cc(F)c(Cl)c(F)c3)N2)ccc1-n1cnc(C)c1` (single isomer, unassigned; (-)) [Example 267A, (−)-5-(4-chloro-3,5-difluorophenyl)-3-(6-methoxy-5-(4-methyl-1H-imidazol-1-yl)pyridin-2-yl)-5,6-dihydro-4H-1,2,4-oxadiazine]: the EC50 was > 3000 nM.

As to `COc1nc(C2=NOCC(c3ccc(C(C)(C)O)cc3)N2)ccc1-n1cnc(C)c1` (single isomer, unassigned; (-)) [Example 268A, (−)-2-(4-(3-(6-methoxy-5-(4-methyl-1H-imidazol-1-yl)pyridin-2-yl)-5,6-dihydro-4H-1,2,4-oxadiazin-5-yl)phenyl)propan-2-ol], the EC50 is 1440 nM.

As to `COc1nc(C2=NOCC(c3cnc4ccc(Cl)cn34)N2)ccc1-n1cnc(C)c1` (single isomer, unassigned; (-)) [Example 269A, (−)-5-(6-chloroimidazo[1,2-a]pyridin-3-yl)-3-(6-methoxy-5-(4-methyl-1H-imidazol-1-yl)pyridin-2-yl)-5,6-dihydro-4H-1,2,4-oxadiazine], the EC50 is > 3000 nM.

The record behind these values is patent publication US9802927B2, “Oxadiazine compounds and methods of use thereof” (Denali Therapeutics, Inc., priority 2015, dated 2017).
